Laboratory results: publication PMC6151435, “Bioactivity In Vitro of Quercetin Glycoside Obtained in Beauveria bassiana Culture and Its Interaction with Liposome Membranes” (Molecules : A Journal of Synthetic Chemistry and Natural …, 2017)
In brackets after ≈: the same amount, converted by molar mass. Like-named read-outs stand apart in the source and are kept apart here.

How the values were obtained:
[1] = rat, in vivo; cited from earlier work
[2] = test system: HSA; settings: cited from earlier work; for binding constant to HSA: ref [59]
[3] = parameters: method as in Strugała et al. [46]; settings: ref Strugała et al. [46]; read-out: IC50 AAPH PC (inhibition of AAPH induced oxidation of phosphatidylcholine liposomes); cited from earlier work
[4] = cited from earlier work
[5] = Solubility in water (literature values); assay type: physicochemical; settings: from cited values

In the case of O=c1c(O[C@@H]2O[C@H](CO)[C@@H](O)[C@H](O)[C@H]2O)c(-c2ccc(O)c(O)c2)oc2cc(O)cc(O)c12 [3-O-glucoside of quercetin], the “absorption, higher compared to quercetin itself” value [1] is given as 184%.
In the case of COc1ccc2c(c1)c(CC(=O)O)c(C)n2C(=O)c1ccc(Cl)cc1 [Indomethacin, indomethacin], the “binding constant to HSA” value [2] is given as about 489000 M⁻¹.
In the case of O=C1O[C@H]([C@@H](O)CO)C(O)=C1O [L(+) ascorbic acid, L-(+)-ascorbic acid], the IC50 [3] is given as 129 ± 12.4 µM.
In the case of CC(=O)Oc1ccccc1C(=O)O [aspirin], the “binding constant to HSA” value [2] is listed as “approximately 1.4 × 10^4 M^−1”.
For Cc1cnc(NC(=O)C2=C(O)c3ccccc3S(=O)(=O)N2C)s1 [meloxicam], the “association constant to HSA” value ([2]; order of magnitude, ref [58]) is given as ~10^5 M^−1 and the “bound to HSA” value ([2]; ref [58]) is given as “more than 99%”.
In the case of O=C1C[C@@H](c2ccc(O)cc2)Oc2cc(O)cc(O)c21 [naringenin], the solubility ([4]; at 20 °C, ref [9]) is listed as 4.38 µg/mL (≈ 16.1 µM).
For C[C@@H]1O[C@@H](O[C@H]2[C@H](Oc3cc(O)c4c(c3)O[C@H](c3ccc(O)cc3)CC4=O)O[C@H](CO)[C@@H](O)[C@@H]2O)[C@H](O)[C@H](O)[C@H]1O [naringin], the solubility ([4]; ref [10]) is listed as 500 µg/mL (≈ 861 µM) and the “solubility, fold higher than aglycone naringenin” value [5] is listed as “more than 110 fold”.
